Source: patent US6399634B1, “Benzothiophene compounds, compositions, and methods” (Eli Lilly and Company, priority 1994, dated 2002)
“And” between values parts separate entries of the source, which are not always exact repeats. Identical values can stand only once. Counter-ions that a name gives are not always drawn.

Legend:
[1] = tested on: ovariectomized (OVX) rats; assay: Uterine wet weight in ovariectomized rat post-menopausal model, 4 days of dosing; format: in vivo, Sprague Dawley rats; details: oral; for Uterine Weight (% increase vs. OVX): daily for 4 days
Procedure: In the examples illustrating the methods, a post-menopausal model was used in which effects of different treatments upon circulating lipids were determined.
(§1) Seventy-five day old female Sprague Dawley rats (weight range of 200 to 225 g) were obtained from Charles River Laboratories (Portage, Mich.). The animals were either bilaterally ovariectomized (OVX) or exposed to a Sham surgical procedure at Charles River Laboratories, and then shipped after one week. Upon arrival, they were housed in metal hanging cages in groups of 3 or 4 per cage and had ad libitum access to food (calcium content approximately 0.5%) and water for one week. Room temperature was maintained at 22.2°±1.7° C. with a minimum relative humidity of 40%. The photoperiod in the room was 12 hours light and 12 hours dark.
(§2) Dosing Regimen Tissue Collection. After a one week acclimation period (therefore, two weeks post-OVX) daily dosing with test compound was initiated. 17α-ethynyl estradiol or the test compound were given orally, unless otherwise stated, as a suspension in 1% carboxymethylcellulose or dissolved in 20% cyclodextrin. Animals were dosed daily for 4 days. Following the dosing regimen, animals were weighed and anesthetized with a ketamine: Xylazine (2:1, V:V) mixture and a blood sample was collected by cardiac puncture. The animals were then sacrificed by asphyxiation with CO2, the uterus was removed through a midline incision, and a wet uterine weight was determined.

[2] = tested on: Uterine Eosinophil Peroxidase (EPO); assay: Uterine Eosinophil Peroxidase (EPO) Assay on uteri of dosed OVX rats; format: in vivo, Sprague Dawley rats; design: unit not given here
Text: as §1, §2
Uterine Eosinophil Peroxidase (EPO) Assay. Uteri were kept at 4° C. until time of enzymatic analysis. The uteri were then homogenized in 50 volumes of 50 mM Tris buffer (pH−8.0) containing 0.005% Triton X-100. Upon addition of 0.01% hydrogen peroxide and 10 mM o-phenylenediamine (final concentrations) in Tris buffer, increase in absorbance was monitored for one minute at 450 nm. The presence of eosonophils in the uterus is an indication of estrogenic activity of a compound. The maximal velocity of a 15 second interval was determined over the initial, linear portion of the reaction curve.

[3] = tested on: ovariectomized (OVX) rats; assay: Serum cholesterol analysis in ovariectomized rats, 4 days of dosing; format: in vivo, Sprague Dawley rats; details: oral; for Serum Cholesterol (% decrease vs. OVX): daily for 4 days
Text: as §1, §2
Cholesterol Analysis. Blood samples were allowed to clot at room temperature for 2 hours, and serum was obtained following centrifugation for 10 minutes at 3000 rpm. Serum cholesterol was determined using a Boehringer Mannheim Diagnostics high performance cholesterol assay. Briefly the cholesterol was oxidized to cholest-4-en-3-one and hydrogen peroxide. The hydrogen peroxide was then reacted with phenol and 4-aminophenazone in the presence of peroxidase to produce a p-quinone imine dye, which was read spectrophotemetrically at 500 nm. Cholesterol concentration was then calculated against a standard curve. The entire assay was automated using a Biomek Automated Workstation.

[4] = tested on: ovariectomized (OVX) rats; assay: Osteoporosis Test Procedure: femur bone density in OVX rats after 35 days of dosing; format: in vivo, Sprague Dawley rats; details: for Bone Density: mean ± SEM
Text: Seventy-five day old female Sprague Dawley rats (weight range of 200 to 225 g) were obtained from Charles River Laboratories (Portage, Mich.). The animals were either bilaterally ovariectomized (OVX) or exposed to a Sham surgical procedure at Charles River Laboratories, and then shipped after one week. Upon arrival, they were housed in metal hanging cages in groups of 3 or 4 per cage and had ad libitum access to food (calcium content approximately 0.5%) and water for one week. Room temperature was maintained at 22.2°±1.7° C. with a minimum relative humidity of 40%. The photoperiod in the room was 12 hours light and 12 hours dark. Following the General Preparation Procedure, infra, the rats were treated daily for 35 days (6 rats per treatment group) and sacrificed by decapitation on the 36th day. The 35 day time period was sufficient to allow maximal reduction in bone density, measured as described herein. At the time of sacrifice, the uteri were removed, dissected free of extraneous tissue, and the fluid contents were expelled before determination of wet weight in order to confirm estrogen deficiency associated with complete ovariectomy. […] The uteri were then placed in 10% neutral buffered formalin to allow for subsequent histological analysis. The right femurs were excised and scanned at the distal metaphysis 1 mm from the patellar groove with single photon absorptiometry. Results of the densitometer measurements represent a calculation of bone density as a function of the bone mineral content and bone width. In accordance with the above procedures, compounds of the present invention and ethynyl estradiol (EE2) in 20% hydroxypropyl β-cyclodextrin were orally administered to test animals. Data presented in Tables 5 and 6 below are the results of these treatments compared to intact and ovariectomized test animals. Results are reported as the mean±the standard error of the mean.

[5] = tested on: MCF-7 breast adenocarcinoma cells; assay: MCF-7 Proliferation Assay (tritiated thymidine); format: cell-based; details: Homo sapiens, MCF7; MCF-7 cells, 48 hours with drug, tritiated thymidine pulse 4 hours
Procedure: MCF-7 breast adenocarcinoma cells (ATCC HTB 22) were maintained in MEM (minimal essential medium, phenol red-free, Sigma, St. Louis, Mo.) supplimented with 10% fetal bovine serum (FBS) (V/V), L-glutamine (2 mM), sodium pyruvate (1 mM), HEPES {(N-[2-hydroxyethyl]piperazine-N′-[2-ethanesulfonic acid]10 mM}, non-essential amino acids and bovine insulin (1 ug/mL) (maintenance medium). Ten days prior to assay, MCF-7 cells were switched to maintenance medium supplemented with 10% dextrancoated charcoal stripped fetal bovine serum (DCC-FBS) assay medium) in place of 10% FBS to deplete internal stores of steroids. MCF-7 cells were removed from maintenance flasks using cell dissociation medium (Ca++/Mg++ free HBSS (phenol red-free) supplemented with 10 mM HEPES and 2 mM EDTA). Cells were washed twice with assay medium and adjusted to 80,000 cells/mL. Approximately 100 μL (8,000 cells) were added to flat-bottom microculture wells (Costar 3596) and incubated at 37° C. in a 5% CO2 humidified incubator for 48 hours to allow for cell adherence and equilibration after transfer. Serial dilutions of drugs or DMSO as a diluent control were prepared in assay medium and 50 μL transferred to triplicate microcultures followed by 50 μL assay medium for a final volume of 200 μL. After an additional 48 hours at 37° C. in a 5% CO2 humidified incubator, microcultures were pulsed with tritiated thymidine (1 uCi/well) for 4 hours. Cultures were terminated by freezing at −70° C. for 24 hours followed by thawing and harvesting of microcultures using a Skatron Semiautomatic Cell Harvester. Samples were counted by liquid scintillation using a Wallac BetaPlace β counter. Results in Table 7 below show the IC50 for certain compounds of the present invention.

[6] = female, Sprague Dawley, rat, in vivo, po, 0.1 mg/kg, 4 days
[7] = female, Sprague Dawley, rat, in vivo, po, 1 mg/kg, 4 days
[8] = female, Sprague Dawley, rat, in vivo, po, 10 mg/kg, 4 days

| SMILES | Uterine Weight (% increase vs. OVX) ([1]; dose 0.1 mg/kg) | Uterine Weight (% increase vs. OVX) ([1]; dose 1.0 mg/kg) | Uterine Weight (% increase vs. OVX) ([1]; dose 10.0 mg/kg) | Uterine EPO (V. max) [2, 6] | Uterine EPO (V. max) [2, 7] | Uterine EPO (V. max) [2, 8] | Serum Cholesterol (% decrease vs. OVX) ([3]; dose 0.1 mg/kg) | Serum Cholesterol (% decrease vs. OVX) ([3]; dose 1.0 mg/kg) | Serum Cholesterol (% decrease vs. OVX) ([3]; dose 10.0 mg/kg) | Bone Density ([4]; Table 5, oral, 0.01 mg/kg, OVX control 26.18, intact control 70.22, * P <= 0.05) | Bone Density ([4]; Table 5, oral, 0.1 mg/kg, OVX control 26.18, intact control 70.22, * P <= 0.05) | Bone Density ([4]; Table 5, oral, 1.0 mg/kg, OVX control 26.18, intact control 70.22, * P <= 0.05) | IC50 [5] | Effect on uterine weight compared to ovariectomized test animals (in words) ([1]; EE2 at 0.1 mg/Kg/day) | Uterine EPO (V. max) ([2]; OVX rats, oral, daily for 4 days, dose 0.1 mg/kg) | Effect on serum cholesterol compared to ovariectomized control animals (in words) ([3]; EE2 at 0.1 mg/Kg/day) | Bone Density ([4]; Table 5, oral, 100 μg/kg, OVX control 26.18, intact control 70.22, * P <= 0.05) | Bone Density ([4]; Table 6, oral, 100 μg/kg, OVX control 32.46, intact control 81.27, * P <= 0.05) | Prevention of femur bone loss caused by ovariectomy (in words) ([4]; oral) |
| --- | --- | --- | --- | --- | --- | --- | --- | --- | --- | --- | --- | --- | --- | --- | --- | --- | --- | --- | --- |
| Oc1ccc(-c2sc3cc(O)ccc3c2C(O)c2ccc(OCCN3CCCCC3)cc2)cc1 (stereo not drawn) [(b)-Ex2, [6-Hydroxy-2-(4-Hydroxyphenyl)Benzo[B]Thien-3-Yl][4-[2-(1-Piperidinyl)Ethoxy]Phenyl]Methanol] | 52.2% | 39.1% | 45.6% | 7.4 | 4.7 | 14.5 | 22.2% | 43.5% | 61.6% | – | – | – | – | – | – | – | – | – | – |
| Oc1ccc(-c2sc3cc(O)ccc3c2Cc2ccc(OCCN3CCCCC3)cc2)cc1 [(k)-Ex11, [6-Hydroxy-2-(4-Hydroxyphenyl)Benzo[B]Thien-3-Yl][4-[2-(1-Piperidinyl)Ethoxy]Phenyl]Methane Hydrochloride] | 4.0% | 23.1% | 5.2% | 7.3 | 4.8 | 5.5 | 43.7% | 63.0% | 60.7% | – | – | – | – | – | – | – | – | – | – |
| COc1ccc(-c2sc3cc(OC)ccc3c2Cc2ccc(OCCN3CCCCC3)cc2)cc1 [(p)-Ex16, [6-Methoxy-2-(4-Methoxyphenyl)Benzo[B]Thien-3-Yl][4-[2-(1-Piperidinyl)Ethoxy]Phenyl]Methane Hydrochloride] | −13.5% | −13.7% | −24.6% | 5.8 | 5.4 | 6.2 | 26.8% | 59.4% | 72.3% | 26.78 ± 4.98 mg/cm/cm | 43.30 ± 7.86 mg/cm/cm | 33.62 ± 5.87 mg/cm/cm | 50 nM | – | – | – | – | – | – |
| CCCCS(=O)(=O)Oc1ccc(-c2sc3cc(OS(=O)(=O)CCCC)ccc3c2Cc2ccc(OCCN3CCCCC3)cc2)cc1 [(r)-Ex18, [6-{n-Butylsulfonoyloxy}-2-(4-{n-Butylsulfonoyloxy}Phenyl)Benzo[B]Thien-3-Yl][4-[2-(1-Piperidinyl)Ethoxy]Phenyl]Methane Hydrochloride] | −16.6% | −18.4% | −19.5% | 1.8 | 3.5 | 2.8 | 65.4% | 67.0% | 67.9% | – | – | – | 1000 nM | – | – | – | – | – | – |
| O=C(Oc1ccc(-c2sc3cc(OC(=O)c4ccccc4)ccc3c2Cc2ccc(OCCN3CCCCC3)cc2)cc1)c1ccccc1 [(s)-Ex21, [6-Benzoyloxy-2-(4-Benzoyloxyphenyl)Benzo[B]Thien-3-Yl][4-[2-{1-Piperidinyl}Ethoxy]Phenyl]Methane] | −19.6% | −28.7% | −26.6% | 1.8 | 2.6 | 2.3 | 66.2% | 63.4% | 64.4% | – | – | – | 0.01 nM | – | – | – | – | – | – |
| C#C[C@]1(O)CC[C@H]2[C@@H]3CCc4cc(O)ccc4[C@H]3CC[C@@]21C [EE2, 17α-ethynyl estradiol, reference compound] | 111.5% and 178.3% | – | – | – | – | – | 89.5% and 91.8% | – | – | – | – | – | – | substantially greater than the uterine weight of ovariectomized test animals | 246.0 and 173.3 | decrease in serum cholesterol | 47.94 ± 3.71 mg/cm/cm | 47.31 ± 6.42 mg/cm/cm | prevented this loss |
| C[C@]12CC[C@@H]3c4ccc(O)cc4CC[C@H]3[C@@H]1CCC2=O [Estrone, reference compound] | – | – | – | – | – | – | – | – | – | – | – | – | 1 nM | – | – | – | – | – | – |
